Results on one compound are retold here after ChEMBL document CHEMBL4732226, “Discovery of a potent G-protein-coupled receptor 119 agonist for the treatment of type 2 diabetes” (Bioorg Med Chem, 2021).

A short description of data set [1]: Toxicity in male Wistar rat assessed as ratio of brain to body weight at 200 mg/kg, po after 28 days (reference value: 0.766 +/- 0.038). The data set is classed as organism-based. The settings on record: in vivo, 672 h, time 28 day.
The nature of data set [2]: Toxicity in male Wistar rat assessed as glucose level at 400 mg/kg, po after 28 days (reference value: 89.02 +/- 13.41 mg/dl). The data set is classed as organism-based. The settings on record: in vivo, 672 h, time 28 day.

On to `Cc1c(Oc2cccc(/C=C3\SC(=O)NC3=O)c2)ncnc1OC1CCN(C(=O)OC(C)(C)C)CC1`, for which the Ratio in data set [1] is reported as 0.824. In data set [2], the Activity was found to be 82.17 mg/dL.
